# Patent US20080108710A1, “High-Potency Sweetener Composition With Preservative and Compositions Sweetened Therewith” (THE COCA-COLA COMPANY, priority 2006, published 2008)
# Columns and labels:
# [1] = tested on: panel of experts in the sensory evaluation of foods and beverages; assay: Sensory evaluation of sweetness linger and taste characteristics; type: in vivo; parameters: key: 0: no sweetness linger; 1: very slight sweetness linger; 2: slight sweetness linger; 3: moderate sweetness linger; 4: moderately high sweetness linger; 5: high sweetness linger
# Procedure: Sensory evaluation of the samples prepared in Example Set G was carried out under the following protocol, similar to that described hereinabove. In this test protocol, none of the samples were swallowed. All samples were expectorated and the mouth was rinsed with water after the tasting. Immediately upon sensing maximal sweetness, the sample was expectorated, the mouth was rinsed with water and the rate of sweetness decay (“Sweetness Linger”) was measured, where attention was focused on the sweetness 3-4 min after the water rinse. After sample tasting was complete, a salty oyster cracker was chewed followed by a water rinse, and at least 5 minutes followed before tasting the next sample. […]
# Sweet taste improving compositions were combined with a REBA solution to determine their effect on sweetness linger. Screening of the initial sample, or further dilutions, allowed identification of concentrations which were just above-threshold, herein defined as “near-threshold concentrations.” The near-threshold additive concentrations, a 6- to 100-fold higher higher additive concentration (depending on the off-taste intensity), and a mid-level additive concentration (halfway between the near-threshold and higher additive concentration) were evaluated to determine the effect on sweetness linger of a REBA solution. […]
# [2] = Rate of dissolution of rebaudioside A polymorph and amorphous forms in H2O; type: physicochemical
# Text: The purification of rebaudioside A by crystallization as described above results in the formation of at least three different polymorphs: Form 1: a rebaudioside A hydrate; Form 2: an anhydrous rebaudioside A; and Form 3: a rebaudioside A solvate. In addition to the at least three polymorph forms of rebaudioside A, the purification of rebaudioside A may result in the formation of an amorphous form of rebaudioside A, Form 4. The aqueous organic solution and temperature of the purification process influence the resulting polymorph and amorphous forms in the substantially pure rebaudioside A composition. FIGS. 1-5 are exemplary powder x-ray diffraction (XRPD) scans of the polymorph and amorphous forms of rebaudioside A: Form 1 (hydrate), Form 2 (anhydrate), Form 3A (methanol solvate), Form 3B (ethanol solvate), and Form 4 (amorphous), respectively.
Rate of dissolution in H2O at 25° C. [2],Substance,"Sweetness Linger ([1]; Example Set G: citric acid/potassium citrate composition equivalent to diet lemon-lime beverage, scale 0-5, sweetness 3-4 min after water rinse)","Sweetness Linger ([1]; Example Set H: carbon-treated water with phosphoric acid (75%) to pH 2.4-2.5, scale 0-5)"
–,rebaudioside A,5,5
Very low (<0.2%/60 %/60 minutes,rebaudioside A [Form 1],–,–
Intermediate (<30%/5 %/5 minutes,rebaudioside A [Form 2],–,–
